Data from ChEMBL document CHEMBL3865781, “Recent advances in the discovery and development of antibacterial agents targeting the cell-division protein FtsZ” (Bioorg Med Chem, 2016).
≈ marks a conversion by molar mass, not a printed value.

Legend:
[1] = Displacement of mant-GTP from Bacillus subtilis FtsZ by spectrofluorometric assay
[2] = system: Bacillus subtilis; experiment: Antibacterial activity against Bacillus subtilis; assay type: functional
[3] = system: Escherichia coli; experiment: Antibacterial activity against Escherichia coli ATCC 25922 after 18 hrs by broth microdilution method; assay type: functional; settings: ATCC 25922, 18 h
[4] = system: Staphylococcus aureus; experiment: Antibacterial activity against methicillin-resistant Staphylococcus aureus ATCC BAA-41 after 18 hrs by broth microdilution method; assay type: functional; settings: ATCC BAA-41, 18 h
[5] = Inhibition of Escherichia coli FtsZ polymerization expressed in Escherichia coli BL21 assessed as reduction in light scattering intensity in presence of GTP by fluorescence spectrometric analysis
[6] = system: Enterococcus faecalis; experiment: Antimicrobial activity against vancomycin-sensitive Enterococcus faecalis after 18 hrs by broth microdilution method; assay type: functional
[7] = system: Klebsiella pneumoniae; experiment: Antibacterial activity against Klebsiella pneumoniae ATCC BAA-1144 after 18 hrs by broth microdilution method; assay type: functional; settings: ATCC BAA-1144, 18 h
[8] = system: Staphylococcus aureus; experiment: Antibacterial activity against methicillin-sensitive Staphylococcus aureus after 18 hrs by broth microdilution method; assay type: functional
[9] = system: Mycobacterium tuberculosis; experiment: Antibacterial activity against Mycobacterium tuberculosis H37Rv measured every 24 hrs for 7 days by MABA assay; assay type: functional
[10] = system: Mycobacterium tuberculosis; experiment: Antibacterial activity against Mycobacterium tuberculosis NHN382 clinical isolates measured every 24 hrs for 7 days by MABA assay; assay type: functional
[11] = system: Mycobacterium tuberculosis; experiment: Antibacterial activity against Mycobacterium tuberculosis TN587 clinical isolates measured every 24 hrs for 7 days by MABA assay; assay type: functional
[12] = system: Mycobacterium tuberculosis; experiment: Antibacterial activity against Mycobacterium tuberculosis W210 clinical isolates measured every 24 hrs for 7 days by MABA assay; assay type: functional
[13] = system: Enterococcus faecalis; experiment: Antimicrobial activity against vancomycin-resistant Enterococcus faecalis after 18 hrs by broth microdilution method; assay type: functional
[14] = system: Bacillus subtilis; experiment: Inhibition of Bacillus subtilis FtsZ polymerization expressed in Escherichia coli BL21(DE3) pLysS at 2 uM preincubated for 15 mins followed by GTP addition by spectrofluorometric analysis relative to control
[15] = system: Bacillus subtilis; experiment: Inhibition of Bacillus subtilis FtsZ polymerization expressed in Escherichia coli BL21(DE3) pLysS at 5 uM preincubated for 15 mins followed by GTP addition by spectrofluorometric analysis relative to control
[16] = system: Bacillus subtilis; experiment: Inhibition of Bacillus subtilis FtsZ polymerization expressed in Escherichia coli BL21(DE3) pLysS at 10 uM preincubated for 15 mins followed by GTP addition by spectrofluorometric analysis relative to control
[17] = system: Bacillus subtilis; experiment: Inhibition of Bacillus subtilis FtsZ GTPase activity expressed in Escherichia coli BL21(DE3) pLysS at 24 uM preincubated for 15 mins followed by GTP addition after 10 mins by malachite green ammonium molybdate assay relative to control
[18] = molecular target: T1, Cell division protein FtsZ (Staphylococcus aureus, UniProt P0A031); experiment: Inhibition of Staphylococcus aureus N-terminal His6-tagged FtsZ GTPase activity expressed in Escherichia coli BL21(DE3) preincubated for 10 mins followed by GTP addition after 30 mins by cytophos phosphate assay
T1 sequence (P0A031 whole entry): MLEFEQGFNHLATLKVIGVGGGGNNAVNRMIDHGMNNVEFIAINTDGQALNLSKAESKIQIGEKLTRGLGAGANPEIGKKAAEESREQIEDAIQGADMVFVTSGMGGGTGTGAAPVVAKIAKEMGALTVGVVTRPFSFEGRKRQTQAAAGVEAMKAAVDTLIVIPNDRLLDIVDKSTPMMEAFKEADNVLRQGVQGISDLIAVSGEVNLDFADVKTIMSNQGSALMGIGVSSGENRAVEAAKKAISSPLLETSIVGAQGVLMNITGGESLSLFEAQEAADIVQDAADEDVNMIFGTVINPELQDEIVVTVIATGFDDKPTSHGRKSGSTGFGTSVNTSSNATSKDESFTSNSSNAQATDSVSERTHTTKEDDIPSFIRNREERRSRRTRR

SMILES	MIC [3] [µg/mL]	MIC [4] [µg/mL]	MIC [6] [µg/mL]	MIC [7] [µg/mL]	MIC [8] [µg/mL]	further results
O=C(Oc1cc(OC(=O)c2cc(O)c(O)c(O)c2)c2ccccc2c1)c1cc(O)c(O)c(O)c1						Kd [1]: 400 to 800 nM; MIC [2]: 100 µM (≈ 46.4 µg/mL)
O=C(O)/C=C/c1ccc(O)cc1 [COUMARIC ACID]	32 to 128 (≈ 195 to 780 µM)	2 to 8 (≈ 12.2 to 48.7 µM)	4 to 16 (≈ 24.4 to 97.5 µM)	32 to 128 (≈ 195 to 780 µM)	2 to 8 (≈ 12.2 to 48.7 µM)	IC50 [5]: 190 µM
CCCCOC(=O)Nc1cc2nc(C3CCCCC3)[nH]c2cc1N1CCCC1						MIC99 [9]: 0.39 µg/mL (≈ 1.01 µM); MIC99 [10]: 0.31 µg/mL (≈ 0.806 µM); MIC99 [11]: 0.16 µg/mL (≈ 0.416 µM); MIC99 [12]: 0.63 µg/mL (≈ 1.64 µM)
COc1cc2cc3c4cc(-c5ccc(-c6ccccc6)cc5)c(OC)c(OC)c4cc[n+]3c(C(C)C)c2cc1OC	32 to 128	2 to 8	4 to 16	32 to 128	2 to 8	
COc1cc(/C=C/C(=O)O)ccc1O [FERULATE]	32 to 128 (≈ 165 to 659 µM)	2 to 8 (≈ 10.3 to 41.2 µM)	4 to 16 (≈ 20.6 to 82.4 µM)	32 to 128 (≈ 165 to 659 µM)	2 to 8 (≈ 10.3 to 41.2 µM)	
C=CCc1ccc(O)c(OC)c1 [EUGENOL]	32 to 128 (≈ 195 to 780 µM)	2 to 8 (≈ 12.2 to 48.7 µM)	4 to 16 (≈ 24.4 to 97.4 µM)	32 to 128 (≈ 195 to 780 µM)	2 to 8 (≈ 12.2 to 48.7 µM)	IC50 [5]: > 250 µM; MIC [13]: 4 to 16 µg/mL (≈ 24.4 to 97.4 µM)
CC1=CC(=O)c2c(O)cccc2C1=O [PLUMBAGIN]	32 to 128 (≈ 170 to 680 µM)	2 to 8 (≈ 10.6 to 42.5 µM)	4 to 16 (≈ 21.3 to 85 µM)	32 to 128 (≈ 170 to 680 µM)	2 to 8 (≈ 10.6 to 42.5 µM)	inhibition [14]: 26%; inhibition [15]: 33%; inhibition [16]: 45%; inhibition [17]: 58%; MIC [13]: 4 to 16 µg/mL (≈ 21.3 to 85 µM)
COc1ccc2cc3[n+](cc2c1OCCCOc1ccc(Cl)cc1)CCc1cc2c(cc1-3)OCO2.[Br-]	32 to 128	2 to 8	4 to 16	32 to 128	2 to 8	IC50 [18]: 66.6 µM
COc1ccc(/C=C/C(=O)O)cc1OC [O,O'-DIMETHYLCAFFEIC ACID]	32 to 128 (≈ 154 to 615 µM)	2 to 8 (≈ 9.61 to 38.4 µM)	4 to 16 (≈ 19.2 to 76.8 µM)	32 to 128 (≈ 154 to 615 µM)	2 to 8 (≈ 9.61 to 38.4 µM)	IC50 [5]: > 250 µM
CCCCOC(=O)Nc1cc2nc(C3CCCCC3)[nH]c2cc1N(C)C						MIC99 [9]: 0.06 µg/mL (≈ 0.167 µM); MIC99 [10]: 0.06 µg/mL (≈ 0.167 µM); MIC99 [11]: 0.13 µg/mL (≈ 0.363 µM); MIC99 [12]: 0.06 µg/mL (≈ 0.167 µM)
Oc1ccc(/C=C/c2cc(O)cc(O)c2)cc1 [RESVERATROL]	32 to 128 (≈ 140 to 561 µM)	2 to 8 (≈ 8.76 to 35 µM)	4 to 16 (≈ 17.5 to 70.1 µM)	32 to 128 (≈ 140 to 561 µM)	2 to 8 (≈ 8.76 to 35 µM)	
O=C(Oc1cc(OC(=O)c2cc(O)cc(O)c2)c2ccccc2c1)c1cc(O)cc(O)c1						Kd [1]: 400 to 800 nM; MIC [2]: 25 µM (≈ 10.8 µg/mL)
O=C(Oc1cc(OC(=O)c2cccc(O)c2)cc(-c2ccccc2)c1)c1cccc(O)c1						Kd [1]: 500 nM
COc1cc(C/C=C(/Cl)Cc2cc(O)cc(O)c2)c(OC)cc1Cl	32 to 128 (≈ 86.7 to 347 µM)	2 to 8 (≈ 5.42 to 21.7 µM)	4 to 16 (≈ 10.8 to 43.3 µM)	32 to 128 (≈ 86.7 to 347 µM)	2 to 8 (≈ 5.42 to 21.7 µM)	
O=C(O)/C=C/c1ccc(O)c(O)c1 [CAFFEIC ACID]	32 to 128 (≈ 178 to 710 µM)	2 to 8 (≈ 11.1 to 44.4 µM)	4 to 16 (≈ 22.2 to 88.8 µM)	32 to 128 (≈ 178 to 710 µM)	2 to 8 (≈ 11.1 to 44.4 µM)	IC50 [5]: 106 µM
Cc1nc2ccccc2n1C(=O)/C=C/c1ccc(Cl)cc1Cl	32 to 128 (≈ 96.6 to 386 µM)	2 to 8 (≈ 6.04 to 24.2 µM)	4 to 16 (≈ 12.1 to 48.3 µM)	32 to 128 (≈ 96.6 to 386 µM)	2 to 8 (≈ 6.04 to 24.2 µM)	
